# Data from patent publication US9428487B2, “Heteroaromatic amides and thioamides as pesticides” (Bayer Intellectual Property GmbH, priority 2008, dated 2016).
# Where two headings read alike, the source gives them in different places.
# Tests used:
# [1] = Determination of log P values by HPLC on reversed-phase column (formic acid method); format: physicochemical
# Protocol: 1) Description of Method for Determining the Log P Values (Formic Acid Method)
# The log P values reported in the table were determined according to EEC-Directive 79/831 Annex V.A8 by HPLC (High Performance Liquid Chromatography) on a reversed-phase column (C 18). […]
# Eluent A: acetonitrile+1 ml of formic acid/liter. Eluent B: water+0.9 ml of formic acid/liter.
# Gradient: from 10% eluent A/90% eluent B to 95% eluent A/5% eluent B in 4.25 min
# The calibration was effected with unbranched alkan-2-ones (with 3 to 16 carbon atoms), whose log P values are known (determination of the log P values on the basis of the retention times by linear interpolation between two successive alkanones). The lambda-max values were determined with reference to the UV spectra from 200 nm to 400 nm in the maxima of the chromatographic signals.
# [2] = tested on: green peach aphid (Myzus persicae); assay: Myzus test; format: in vivo; conditions: read-out: efficacy (aphids killed)
# Protocol: • Solvent: 78.0 parts by weight of acetone • 1.5 parts by weight of dimethylformamide • Emulsifier: 0.5 part by weight of alkylaryl polyglycol ether
# To produce an appropriate active ingredient formulation, 1 part by weight of active ingredient is mixed with the amounts of solvent and emulsifier specified and the concentrate is diluted to the desired concentration with emulsifier-containing water.
# Chinese cabbage leaf slices (Brassica pekinensis) infested by all stages of the green peach aphid (Myzus persicae) are sprayed with an active ingredient formulation of the desired concentration.
# After the desired time, the efficacy in % is determined 100% means that all aphids have been killed; 0% means that no aphids have been killed.
# [3] = reversed-phase HPLC column (C 18), pH 3.4, HPLC, reversed-phase C 18, acidic range (pH 3.4), formic acid eluents, 55° C., read-out: logP (HCOOH)
# [4] = application rate 500 g/ha, spray on Chinese cabbage leaf slices
# [5] = HPLC, reversed-phase C 18, acidic range (pH 3.4), formic acid eluents, 55° C., read-out: logP (HCOOH)
Compound,"chromatographic logP [1, 3]","pest or weed control at 500 g/ha [2, 4] [%]",also measured
COC(OC)C(C)NC(=O)c1sc(-c2cccnc2)nc1C (centres unmarked) [Compound 65],1.45,≥ 70,
CCN(CC)C(=O)c1cnc(-c2cccnc2)s1 [Compound 67],1.46,≥ 70,
C=CN(Cc1ncccn1)C(=O)c1cc(-c2cncc(F)c2)nn1C [Compound 13],1.75,≥ 70,
Cc1nc(-c2cccnc2)sc1C(=O)N(CC(F)(F)F)C(=O)C1(F)CC1 [Compound 58],2.77,≥ 70,
O=C(NCC(F)(F)F)c1cc(-c2cccnc2)n[nH]1 [Compound 33],0.72,≥ 70,
Cc1nc(-c2cccnc2)sc1C(=O)N(C)CC(=O)N(C)C [Compound 133],0.8,≥ 70,
Cc1nc(-c2cccnc2)sc1C(=O)NC1CCC(C(F)(F)F)CC1 (centres unmarked) [Compound 123],2.42,≥ 70,
Cc1nc(-c2cncc(Cl)c2)sc1C(=O)NCc1ncccn1 [Compound 15],1.69,≥ 70,
Cc1nc(-c2cccnc2)sc1C(=O)NC(C#N)C(C)C (centres unmarked) [Compound 63],1.85,≥ 70,
Cc1nc(-c2cccnc2)sc1C(=O)NCc1cccnc1 [Compound 135],0.46,≥ 70,
Cc1nc(-c2cccnc2)sc1C(=O)NC(C)CC(F)(F)F (centres unmarked) [Compound 86],1.94,≥ 70,
Cc1nc(-c2cncc(F)c2)sc1C(=O)NCC(F)(F)F [Compound 9],2.15,≥ 70,
Cc1nc(-c2cncnc2)sc1C(=O)NCc1ncccn1 [Compound 22],1.05,≥ 70,
Cc1nc(-c2cccnc2)sc1C(=O)NCC(F)F [Compound 57],1.34,≥ 70,
Cc1nc(-c2cccnc2)sc1C(=O)NC1CCS(=O)(=O)C1 (centres unmarked) [Compound 110],1.22,≥ 70,
Cc1nc(-c2cccnc2)sc1C(=O)NCc1ccon1 [Compound 60],1.14,≥ 70,

Compound,"chromatographic logP [1, 3]","pest or weed control at 500 g/ha [2, 4] [%]",also measured
CN(CC(F)(F)F)C(=O)c1cc(-c2cccnc2)nn1C [Compound 30],1.09,≥ 70,
O=C(NCc1ncccn1)c1cnc(-c2cccnc2)s1 [Compound 112],0.81,≥ 70,
Cc1nc(-c2cccnc2)sc1C(=O)NCc1nccs1 [Compound 130],1.38,≥ 70,
Cn1nc(-c2cccnc2)cc1C(=O)NCC(F)(F)F [Compound 31],1.04,≥ 70,
Cc1nccc(CNC(=O)c2sc(-c3cccnc3)nc2C)n1 [Compound 107],1.03,≥ 70,
CCOC(=O)N(C)NC(=O)c1sc(-c2cccnc2)nc1C [Compound 197],,≥ 70,"chromatographic logP [1, 5]: 1.48"
Cc1nc(-c2cccnc2)sc1C(=O)NC(C)CF (centres unmarked) [Compound 97],1.42,≥ 70,
CCOC1(NC(=O)c2cnc(-c3cccnc3)s2)CC1 [Compound 88],1.31,≥ 70,
Cc1nc(-c2cccnc2)sc1C(=O)NCC(F)(Cl)Cl [Compound 96],1.98,≥ 70,
COCN(C(=O)c1sc(-c2cccnc2)nc1C)C(C)C(=O)OC (centres unmarked) [Compound 109],1.61,≥ 70,
Cc1nc(-c2cncc(F)c2)sc1C(=O)NCc1ncccn1 [Compound 10],1.39,≥ 70,
CCOC(=O)NC(C)(C)CNC(=O)c1sc(-c2cccnc2)nc1C [Compound 120],,,"chromatographic logP [1, 5]: 1.75; pest or weed control at 500 g/ha ([2]; in Brassica rapa): ≥ 70%"
CSC[C@H](C)N(C)C(=O)c1sc(-c2cccnc2)nc1C [Compound 71],1.71,≥ 70,
CSCCNC(=O)c1sc(-c2cccnc2)nc1C [Compound 44],1.54,≥ 70,
COC(=O)C1(NC(=O)c2sc(-c3cccnc3)nc2C)CC1 [Compound 51],1.3,≥ 70,
C#CCOC(=O)N(CC(F)(F)F)C(=O)c1sc(-c2cccnc2)nc1C [Compound 117],,,"chromatographic logP [1, 5]: 2.63; pest or weed control at 500 g/ha ([2]; in Brassica rapa): ≥ 70%"

# Now from value to compound, other results behind:
"chromatographic logP [1, 3]",Compound,"pest or weed control at 500 g/ha [2, 4] [%]",also measured
0.85,O=C(NCc1ncccn1)c1nnc(-c2cccnc2)s1 [Preparation Example 7],≥ 70,"chromatographic logP ([1]; pH 7.5, pH=7.5, read-out: log P (pH=7.5)): 0.85"
1.69,Cc1nc(-c2cccnc2)sc1C(=O)NC(C)(C#N)C1CCCO1 (centres unmarked) [Compound 157],≥ 70,
1.5,Cc1nc(-c2cccnc2)sc1C(=O)NC(C)C1CCCO1 (centres unmarked) [Compound 195],≥ 70,
2.39,Cc1nc(-c2cccnc2)sc1C(=S)NCC(F)(F)F [Preparation Example 4],≥ 70,"logP (HCOOH) ([1]; HPLC, reversed-phase C 18, acidic range (pH 3.4), formic acid eluents, 55° C.): 2.38"
2.48,Cc1nc(-c2cccnc2)sc1C(=O)NC1CCCC(C(F)(F)F)C1 (centres unmarked) [Compound 149],≥ 70,
1.11,Cc1nc(-c2cccnc2)sc1C(=O)NN1CCOC1=O [Compound 204],≥ 70,
1.19,Cc1nc(-c2cccnc2)sc1C(=O)NCCC#N [Compound 150],≥ 70,
1.26,Cc1nc(-c2cccnc2)sc1C(=O)N(C)CC1COCCO1 (centres unmarked) [Compound 159],≥ 70,
1.68,O=C(NCc1cccc(Br)n1)c1cnc(-c2cccnc2)s1 [Compound 179],≥ 70,
1.66,C#CC(C)(C)NC(=O)c1sc(-c2cccnc2)nc1C [Compound 156],≥ 70,
1.05,Cc1nc(-c2cccnc2)sc1C(=O)NCC#N [Compound 184],≥ 70,
1.64,CCN(CC1CCCO1)C(=O)c1sc(-c2cccnc2)nc1C (centres unmarked) [Compound 187],≥ 70,
1.59,CN(CC(F)(F)F)C(=O)c1cnc(-c2cccnc2)s1 [Compound 192],≥ 70,
2.58,CCCC(NC(=O)c1sc(-c2cccnc2)nc1C)C(F)(F)F (centres unmarked) [Compound 181],≥ 70,
1.45,COCN(CC1COCCO1)C(=O)c1sc(-c2cccnc2)nc1C (centres unmarked) [Compound 188],≥ 70,
1.38,Cc1nc(-c2cccnc2)sc1C(=O)NCc1cc(C)n(C)n1 [Compound 145],≥ 70,
2.43,Cc1nc(-c2cccnc2)sc1C(=O)NCC1CCCCC1 [Compound 153],≥ 70,
1.33,CN(CC1CCCO1)C(=O)c1cnc(-c2cccnc2)s1 (centres unmarked) [Compound 180],≥ 70,
1.44,CCC1(CC)NC(=O)N(NC(=O)c2sc(-c3cccnc3)nc2C)C1=O [Compound 199],≥ 70,
